pIC50: −log10 of the molar value.
System: cancer cell lines
Assay: Multiplexed cytotoxicity assay: cell proliferation (relative cell count IC50, GI50)
Format: cell-based
Details: Homo sapiens
Description: (§1) Cells are grown in RPMI1640, 10% FBS, 2 mM L-alanyl-L-Glutamine, 1 mM Na pyruvate or a special medium in a humidified atmosphere of 5% CO2 at 37° C. Cells are seeded into 384-well plates and incubated in a humidified atmosphere of 5% CO2 at 37° C. Compounds are added 24 h post cell seeding. At the same time, a time zero untreated cell plate is generated. After a 72 hour incubation period, cells are fixed and stained with fluorescently labeled antibodies and nuclear dye to allow visualization of nuclei, apoptotic cells and mitotic cells. Apoptotic cells are detected using an anti-active caspase-3 antibody. Mitotic cells are detected using an anti phospho-histone-3 antibody. Compounds are serially diluted 3.16-fold and assayed over 10 concentrations in a final assay concentration of 0.1% DMSO from the highest test concentration of 10 μM. Automated fluorescence microscopy was carried out using a Molecular Devices ImageXpress Micro XL high-content imager, and images are collected with a 4× objective.
(§2) Sixteen-bit TIFF images are acquired and analyzed with MetaXpress 5.1.0.41 software. Cell proliferation is measured by the signal intensity of the incorporated nuclear dye. The cell proliferation assay output is referred to as the relative cell count. To determine the cell proliferation end point, the cell proliferation data output is transformed to percentage of control (POC) using the following formula: POC=relative cell count(compound wells)/relative cell count(vehicle wells)×100
(§3) GI50 is the concentration needed to reduce the observed growth by half. This is the concentration that inhibits the growth to the level midway between growth in untreated cells and the number of cells seeded in the well (Time zero value). The IC50 values are calculated using nonlinear regression to fit data to a sigmoidal 4 point, 4 parameter One-Site dose response model, where: y(fit)=A+[(B−A)/(1+((C/x)^D))].
as §1, with “In another experiment, cells were grown” for “Cells are grown”, “Cells were” for “Cells are”, “Compounds were” for “Compounds are”, “plate was” for “plate is”, “cells were” for “cells are”, “images were” for “images are”
as §2, with “images were” for “images are”, “proliferation was” for “proliferation is”, “output was” for “output is”
as §3, with “GI50 refers to” for “GI50 is”, “This corresponds to” for “This is”, “values were” for “values are”

[1] = DMS-114, 72 h, DMS114, Lung, SCLC, 72 h
[2] = DMS-273, 72 h, DMS273, Lung, SCLC, 72 h
[3] = DOHH-2, DOHH2 (Hematopoietic and lymphoid, Lymphoma)
[4] = DU-145, 72 h, DU145, Prostate, 72 h
[5] = Daoy, DAOY (CNS, Medulloblastoma)
[6] = Daudi, DAUDI (Hematopoietic and lymphoid, Lymphoma)
[7] = Detroit 562, DETROIT562 (Head and Neck)
[8] = DoTc2-4510, DOTC24510 (Female GU, Cervix)
[9] = GA-10, GA10 (Hematopoietic and lymphoid, Lymphoma)
[10] = HEC-1-A, 72 h, HEC1A, Female GU, Uterus
[11] = HEL 92.1.7, HEL9217 (Hematopoietic and lymphoid, Leukemia)
[12] = HPAF-II, 72 h, HPAFII, Pancreas
[13] = HT-1080, 72 h, HT1080, Soft Tissue, Sarcoma, 72 h
[14] = Hs 294T, HS294T (Skin, Melanoma)
[15] = Hs 695T, HS695T (Skin, Melanoma)
[16] = HuP-T4, 72 h, HUPT4, Pancreas, 72 h
[17] = J-RT3-T3-5, JRT3T35 (Hematopoietic and lymphoid, Leukemia)
[18] = JEG-3, 72 h, JEG3, Female GU, Placenta, 72 h

Compound: C[C@]1(C(N)=O)CC[C@@H](n2c(Nc3c(Cl)cc(Cl)cc3Cl)nc3cnc(N[C@@H]4CCOC[C@H]4F)nc32)CC1 [Compound 1, cis-4-[2-{[(3S,4R)-3-fluorooxan-4-yl]amino}-8-(2,4,6-trichloroanilino)-9H-purin-9-yl]-1-methylcyclohexane-1-carboxamide]
- pIC50 (DMS-53, 72 h, DMS53, Lung, SCLC, 72 h): < 5.00
- GI50 [1]: 68.8 nM
- pIC50 [1]: 6.22
- GI50 [2]: 5960 nM
- pIC50 [2]: 5.17
- GI50 [3]: 5540 nM
- pIC50 [3]: 5.24
- GI50 [4]: 73.8 nM
- pIC50 [4]: 7.02
- GI50 [5]: 749 nM
- pIC50 [5]: 5.96
- GI50 [6]: 17.7 nM
- pIC50 [6]: < 5.00
- GI50 [7]: 347 nM
- pIC50 [7]: < 5.00
- GI50 [8]: 40 nM
- pIC50 [8]: 6.88
- GI50 (EFM-19, EFM19 (Breast)): 4200 nM
- pIC50 (EFM-19, EFM19 (Breast)): < 5.00
- GI50 (FaDu, FADU (Head and Neck)): 435 nM
- pIC50 (FaDu, FADU (Head and Neck)): 6.10
- GI50 (G-361, G361 (Skin, Melanoma)): 102 nM
- pIC50 (G-361, G361 (Skin, Melanoma)): 6.82
- GI50 (G-401, G401 (Kidney)): 77.4 nM
- pIC50 (G-401, G401 (Kidney)): 7.07
- GI50 (G-402, G402 (Kidney)): 50.4 nM
- pIC50 (G-402, G402 (Kidney)): 7.03
- GI50 [9]: 46.8 nM
- pIC50 [9]: 7.25
- GI50 (HCT-15, HCT15 (Colon)): 1970 nM
- pIC50 (HCT-15, HCT15 (Colon)): 5.65
- GI50 (HCT-116, HCT116 (Colon)): 19.4 nM
- pIC50 (HCT-116, HCT116 (Colon)): 7.69
- GI50 [10]: 1800 nM
- pIC50 [10]: 5.55
- GI50 [11]: 4620 nM
- pIC50 [11]: 5.08
- GI50 (HMCB, HMCB (Skin, Melanoma)): 72.4 nM
- pIC50 (HMCB, HMCB (Skin, Melanoma)): 6.95
- GI50 [12]: 13 nM
- pIC50 [12]: 7.76
- GI50 (HRT-18, HRT18 (Colon)): 77.5 nM
- pIC50 (HRT-18, HRT18 (Colon)): 7.09
- GI50 (HT1197, HT1197 (Bladder)): 444 nM
- pIC50 (HT1197, HT1197 (Bladder)): < 5.00
- GI50 (HT-29, HT29 (Colon)): 12.9 nM
- pIC50 (HT-29, HT29 (Colon)): 7.78
- GI50 [13]: 64.8 nM
- pIC50 [13]: 7.14
- GI50 (HT-1376, HT1376 (Bladder)): 792 nM
- pIC50 (HT-1376, HT1376 (Bladder)): 5.46
- GI50 (HeLa, HELA (Female GU, Cervix)): 6750 nM
- pIC50 (HeLa, HELA (Female GU, Cervix)): 5.06
- GI50 (HepG2, HEPG2 (Liver)): 22.4 nM
- pIC50 (HepG2, HEPG2 (Liver)): 7.19
- GI50 [14]: 50.7 nM
- pIC50 [14]: 7.15
- GI50 (Hs 683, HS683 (CNS, Glioma)): 148 nM
- pIC50 (Hs 683, HS683 (CNS, Glioma)): 6.52
- GI50 [15]: 36.3 nM
- pIC50 [15]: 6.80
- GI50 (Hs746T, 72 h, Stomach): 39.6 nM
- pIC50 (Hs746T, 72 h, Stomach): 6.91
- GI50 (Hs-578T, HS578T (Breast)): 153 nM
- pIC50 (Hs-578T, HS578T (Breast)): 6.08
- GI50 (HuCCT-1, HUCCT1 (Liver)): 53.7 nM
- pIC50 (HuCCT-1, HUCCT1 (Liver)): 7.20
- GI50 [16]: 43.4 nM
- pIC50 [16]: 7.30
- GI50 (HuTu80, HUTU80 (Duodenum)): 57 nM
- pIC50 (HuTu80, HUTU80 (Duodenum)): 7.16
- GI50 [17]: 3580 nM
- pIC50 [17]: 5.32
- GI50 [18]: 6340 nM
- pIC50 [18]: 5.11

Reference: US10513519B2, “Solid forms of (1S,4S)-4-(2-(((3S,4R)-3-fluorotetrahydro-2H-pyran-4-yl)amino)-8-((2,4,6-trichlorophenyl)amino)-9H-purin-9-yl)-1-methylcyclohexane-1-carboxamide and methods of their use” (Signal Pharmaceuticals, LLC, priority 2016, dated 2019)
